# In ChEMBL document CHEMBL1157938, “Cytotoxicity and inhibition of DNA topoisomerase I of polyhydroxylated triterpenoids and triterpenoid glycosides” (Bioorg Med Chem Lett, 2010):
# Active and inactive are the calls of the source. No cut-off for these calls is given here.
# Columns and labels:
# PANC-1 = experiment: Cytotoxicity against human PANC1 cells at 25 uM after 48 hrs by WST8 assay; assay type: functional, cell-based
# MRC5 = experiment: Cytotoxicity against human MRC5 cells at 25 uM after 48 hrs by WST8 assay; assay type: cell-based; details: mrc5, 48 h
# PC-3 = experiment: Cytotoxicity against human PC3 cells at 25 uM after 48 hrs by WST8 assay; assay type: functional, cell-based
# [1] = biological target: DNA topoisomerase 2-alpha (Homo sapiens, UniProt P11388); experiment: Inhibition of human DNA topoisomerase 2-mediated relaxation of supercoiled DNA by gel electrophoresis
# HL-60 = experiment: Cytotoxicity against human HL60 cells at 25 uM after 48 hrs by WST8 assay; assay type: functional, cell-based
# DNA topoisomerase 1 = biological target: T1, DNA topoisomerase 1 (Homo sapiens, UniProt P11387); experiment: Inhibition of human DNA topoisomerase 1-mediated relaxation of supercoiled DNA by gel electrophoresis
# T1 sequence (P11387 whole entry): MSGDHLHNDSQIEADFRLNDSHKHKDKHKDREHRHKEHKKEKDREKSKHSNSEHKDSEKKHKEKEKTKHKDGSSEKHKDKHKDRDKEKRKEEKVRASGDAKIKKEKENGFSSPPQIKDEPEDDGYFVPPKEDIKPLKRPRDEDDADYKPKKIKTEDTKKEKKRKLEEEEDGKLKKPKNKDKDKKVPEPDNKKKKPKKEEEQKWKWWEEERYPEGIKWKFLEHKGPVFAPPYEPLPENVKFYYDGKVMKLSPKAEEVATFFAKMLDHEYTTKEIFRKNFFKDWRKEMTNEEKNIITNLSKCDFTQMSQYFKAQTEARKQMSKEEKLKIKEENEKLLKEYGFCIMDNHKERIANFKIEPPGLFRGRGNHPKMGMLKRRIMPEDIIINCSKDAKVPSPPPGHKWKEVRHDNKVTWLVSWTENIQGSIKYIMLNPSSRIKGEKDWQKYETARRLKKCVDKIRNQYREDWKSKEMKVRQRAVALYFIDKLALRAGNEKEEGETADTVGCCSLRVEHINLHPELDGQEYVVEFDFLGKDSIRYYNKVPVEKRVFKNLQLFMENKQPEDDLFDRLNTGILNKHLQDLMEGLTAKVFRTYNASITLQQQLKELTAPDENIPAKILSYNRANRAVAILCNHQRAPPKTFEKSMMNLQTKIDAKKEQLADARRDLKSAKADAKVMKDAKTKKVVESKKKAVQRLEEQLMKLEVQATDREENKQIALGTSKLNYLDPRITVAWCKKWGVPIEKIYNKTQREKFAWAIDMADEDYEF
# A549 = experiment: Cytotoxicity against human A549 cells at 25 uM after 48 hrs by WST8 assay; assay type: functional, cell-based
# Chain of DNA topoisomerase 2-alpha (P11388 whole entry): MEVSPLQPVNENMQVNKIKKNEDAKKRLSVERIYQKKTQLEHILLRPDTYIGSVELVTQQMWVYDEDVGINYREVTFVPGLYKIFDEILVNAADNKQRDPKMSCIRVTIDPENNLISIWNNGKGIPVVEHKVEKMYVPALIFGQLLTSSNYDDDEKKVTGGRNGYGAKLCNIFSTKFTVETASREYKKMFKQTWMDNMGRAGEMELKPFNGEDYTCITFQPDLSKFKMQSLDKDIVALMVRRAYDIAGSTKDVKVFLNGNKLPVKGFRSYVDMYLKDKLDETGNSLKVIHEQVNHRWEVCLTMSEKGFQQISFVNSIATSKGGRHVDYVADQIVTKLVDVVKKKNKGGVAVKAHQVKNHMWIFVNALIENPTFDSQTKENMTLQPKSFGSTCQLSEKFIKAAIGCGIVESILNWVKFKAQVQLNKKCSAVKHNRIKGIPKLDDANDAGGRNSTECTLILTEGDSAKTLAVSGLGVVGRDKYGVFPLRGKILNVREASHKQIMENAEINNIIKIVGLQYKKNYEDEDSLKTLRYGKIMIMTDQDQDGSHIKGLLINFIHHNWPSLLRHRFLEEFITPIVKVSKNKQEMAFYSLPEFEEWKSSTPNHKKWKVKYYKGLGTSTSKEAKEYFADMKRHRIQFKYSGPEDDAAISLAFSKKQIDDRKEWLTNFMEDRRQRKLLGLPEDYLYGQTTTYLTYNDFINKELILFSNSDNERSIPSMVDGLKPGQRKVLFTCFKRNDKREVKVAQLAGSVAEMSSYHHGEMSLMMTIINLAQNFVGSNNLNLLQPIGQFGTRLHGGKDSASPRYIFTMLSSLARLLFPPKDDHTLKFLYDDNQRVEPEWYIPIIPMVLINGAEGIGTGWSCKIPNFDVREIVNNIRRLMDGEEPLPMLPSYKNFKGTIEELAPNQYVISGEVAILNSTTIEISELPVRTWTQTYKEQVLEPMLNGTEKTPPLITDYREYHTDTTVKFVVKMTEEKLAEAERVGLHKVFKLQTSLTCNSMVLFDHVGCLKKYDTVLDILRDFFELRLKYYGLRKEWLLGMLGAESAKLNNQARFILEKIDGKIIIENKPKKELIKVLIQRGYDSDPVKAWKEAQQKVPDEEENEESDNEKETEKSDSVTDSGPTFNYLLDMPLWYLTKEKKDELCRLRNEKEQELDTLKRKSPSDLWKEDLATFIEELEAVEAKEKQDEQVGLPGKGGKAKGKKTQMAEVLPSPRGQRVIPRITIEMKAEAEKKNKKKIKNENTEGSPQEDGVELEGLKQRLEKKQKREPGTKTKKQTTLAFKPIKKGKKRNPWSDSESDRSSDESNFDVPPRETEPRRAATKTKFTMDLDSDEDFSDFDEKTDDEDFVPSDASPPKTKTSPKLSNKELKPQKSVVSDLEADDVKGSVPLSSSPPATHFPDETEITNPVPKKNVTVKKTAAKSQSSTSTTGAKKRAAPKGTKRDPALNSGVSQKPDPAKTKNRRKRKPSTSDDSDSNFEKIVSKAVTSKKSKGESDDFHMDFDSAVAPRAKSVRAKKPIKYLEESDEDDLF
Compound,growth inhibition (GI) (PANC-1),growth inhibition (GI) (MRC5),growth inhibition (GI) (PC-3),IC50 [1] [µM],growth inhibition (GI) (HL-60),IC50 (DNA topoisomerase 1) [µM],growth inhibition (GI) (A549)
C/C=C(\C)C(=O)O[C@H]1[C@H](OC(C)=O)[C@]2(CO)[C@H](O)[C@H](O)[C@]3(C)C(=CC[C@@H]4[C@@]5(C)CC[C@H](O[C@@H]6O[C@H](C(=O)O)[C@@H](O)[C@H](O[C@@H]7O[C@@H](CO)[C@H](O)[C@H]7O)[C@H]6O[C@@H]6O[C@H](CO)[C@H](O)[C@H](O)[C@H]6O)C(C)(C)[C@@H]5CC[C@]43C)[C@@H]2CC1(C)C [AESCULIOSIDE IIF],inactive,Not Active,inactive,> 250,inactive,> 250,inactive
C/C=C(/C)C(=O)O[C@H]1[C@H](OC(C)=O)[C@]2(CO)[C@H](O)[C@H](O)[C@]3(C)C(=CC[C@@H]4[C@@]5(C)CC[C@H](O[C@@H]6O[C@H](C(=O)O)[C@@H](O)[C@H](O[C@@H]7O[C@@H](CO)[C@H](O)[C@H]7O)[C@H]6O[C@@H]6O[C@H](CO)[C@H](O)[C@H](O)[C@H]6O)C(C)(C)[C@@H]5CC[C@]43C)[C@@H]2CC1(C)C [AESCULIOSIDE IIG],inactive,Not Active,inactive,> 250,inactive,> 250,inactive
CC1(C)CC[C@]2(C(=O)O[C@@H]3O[C@H](CO)[C@@H](O)[C@H](O)[C@H]3O)CC[C@]3(C)C(=CC[C@@H]4[C@@]5(C)CC[C@H](O[C@@H]6O[C@H](C(=O)O)[C@@H](O)[C@H](O)[C@H]6O)C(C)(C)[C@@H]5CC[C@]43C)[C@@H]2C1 [CHIKUSETSUSAPONIN IVA],inactive,Not Active,inactive,–,inactive,–,inactive
CC1(C)C[C@H]2C3=CC[C@@H]4[C@@]5(C)CC[C@H](O)C(C)(C)[C@@H]5CC[C@@]4(C)[C@]3(C)C[C@@H](O)[C@@]2(CO)[C@@H](O)[C@@H]1O [BARRINGTOGENOL C],inactive,Not Active,inactive,–,inactive,–,inactive
C/C=C(/C)C(=O)O[C@H]1[C@H](O)C(C)(C)C[C@H]2C3=CC[C@@H]4[C@@]5(C)CC[C@H](O[C@@H]6O[C@H](C(=O)O)[C@@H](O)[C@H](O[C@@H]7OC[C@@H](O)[C@H](O)[C@H]7O)[C@H]6O[C@@H]6O[C@H](CO)[C@@H](O)[C@H](O)[C@H]6O)C(C)(C)[C@@H]5CC[C@@]4(C)[C@]3(C)C[C@@H](O)[C@]21CO [ERYNGIOSIDE F],inactive,Not Active,inactive,> 250,inactive,> 250,inactive
C[C@@H]1[C@@H](O)[C@H](O)[C@@H](O[C@H]2CC(C)(C)C[C@H]3C4=CC[C@@H]5[C@@]6(C)CC[C@H](O[C@@H]7O[C@H](CO)[C@@H](O)[C@H](O)[C@H]7O[C@@H]7O[C@H](CO)[C@@H](O)[C@H](O)[C@H]7O[C@@H]7O[C@H](CO)[C@@H](O)[C@H](O)[C@H]7O)C(C)(C)[C@@H]6CC[C@@]5(C)[C@]4(C)C[C@@H](O)[C@@]23CO)O[C@H]1CO [ERYNGIOSIDE A],inactive,Not Active,inactive,–,inactive,–,inactive
C/C=C(\C)C(=O)O[C@H]1[C@H](OC(C)=O)[C@]2(CO)[C@H](O)C[C@]3(C)C(=CC[C@@H]4[C@@]5(C)CC[C@H](O[C@@H]6O[C@H](C(=O)O)[C@@H](O)[C@H](O[C@@H]7O[C@@H](CO)[C@H](O)[C@H]7O)[C@H]6O[C@@H]6O[C@H](CO)[C@@H](O)[C@H](O)[C@H]6O)[C@](C)(CO)[C@@H]5CC[C@]43C)[C@@H]2CC1(C)C [AESCULIOSIDE IIH],inactive,Not Active,inactive,–,inactive,–,inactive
CC1(C)C[C@H]2C3=CC[C@@H]4[C@@]5(C)CC[C@H](O[C@@H]6O[C@H](C(=O)O)[C@@H](O)[C@H](O[C@@H]7O[C@@H](CO)[C@H](O)[C@H]7O)[C@H]6O[C@@H]6O[C@H](CO)[C@H](O)[C@H](O)[C@H]6O)C(C)(C)[C@@H]5CC[C@@]4(C)[C@]3(C)[C@@H](O)[C@@H](O)[C@@]2(CO)[C@@H](O)[C@@H]1O [AESCULIOSIDE IA],inactive,Not Active,inactive,–,inactive,–,inactive
CC1(C)C[C@H]2C3=CC[C@@H]4[C@@]5(C)CC[C@H](O[C@@H]6O[C@H](C(=O)O)[C@@H](O)[C@H](O[C@@H]7O[C@@H](CO)[C@H](O)[C@H]7O)[C@H]6O[C@@H]6O[C@H](CO)[C@@H](O)[C@H](O)[C@H]6O)[C@](C)(CO)[C@@H]5CC[C@@]4(C)[C@]3(C)C[C@@H](O)[C@@]2(CO)[C@@H](O)[C@@H]1O [AESCULIOSIDE ID],inactive,Not Active,inactive,–,inactive,–,inactive
CC1(C)C[C@H]2C3=CC[C@@H]4[C@@]5(C)CC[C@H](O[C@@H]6O[C@H](C(=O)O)[C@@H](O)[C@H](O[C@@H]7O[C@@H](CO)[C@H](O)[C@H]7O)[C@H]6O)[C@](C)(CO)[C@@H]5CC[C@@]4(C)[C@]3(C)C[C@@H](O)[C@@]2(CO)[C@@H](O)[C@@H]1O [AESCULIOSIDE IE],inactive,Not Active,inactive,–,inactive,–,inactive
C[C@@H]1[C@@H](O)[C@H](O)[C@@H](O[C@H]2CC(C)(C)C[C@H]3C4=CC[C@@H]5[C@@]6(C)CC[C@H](O[C@@H]7O[C@H](CO)[C@@H](O)[C@H](O)[C@H]7O[C@@H]7O[C@H](CO)[C@@H](O)[C@H](O)[C@H]7O[C@@H]7O[C@H](CO)[C@@H](O)[C@H](O)[C@H]7O)C(C)(C)[C@@H]6CC[C@@]5(C)[C@]4(C)CC(=O)[C@@]23CO)O[C@H]1CO [ERYNGIOSIDE C],inactive,Not Active,inactive,–,inactive,–,inactive
C[C@@H]1[C@@H](O)[C@H](O)[C@@H](O[C@H]2CC(C)(C)C[C@H]3C4=CC[C@@H]5[C@@]6(C)CC[C@H](O[C@@H]7O[C@H](CO)[C@@H](O)[C@H](O)[C@H]7O[C@@H]7O[C@H](CO)[C@@H](O)[C@H](O)[C@H]7O[C@@H]7O[C@H](CO)[C@H](O)[C@H](O)[C@H]7O)C(C)(C)[C@@H]6CC[C@@]5(C)[C@]4(C)C[C@@H](O)[C@@]23CO)O[C@H]1CO [ERYNGIOSIDE B],inactive,Not Active,inactive,–,inactive,–,inactive
C[C@@H]1O[C@H](O[C@H]2CC[C@]3(C)[C@H]4CC=C5[C@@H]6CC(C)(C)CC[C@]6(C(=O)O[C@@H]6O[C@H](CO)[C@@H](O)[C@H](O)[C@H]6O)CC[C@@]5(C(=O)O)[C@]4(C)CC[C@H]3C2(C)C)[C@@H](O)[C@H](O)[C@H]1O,inactive,Not Active,inactive,–,inactive,–,inactive
